From ChEMBL document CHEMBL3862033 (J Med Chem, 2016)

Molecular target: 5-hydroxytryptamine receptor 5A (Homo sapiens) (UniProt P47898)
Assay: Displacement of [3H]LSD from human 5-HT5A receptor expressed in Flp-In-CHO cell membranes incubated for 90 mins under dark condition by microbeta scintillation counting method relative to control
Set-up: concentration or dose not given beside the values
Conditions: not given

Sequence of 5-hydroxytryptamine receptor 5A (Homo sapiens) (P47898 whole entry): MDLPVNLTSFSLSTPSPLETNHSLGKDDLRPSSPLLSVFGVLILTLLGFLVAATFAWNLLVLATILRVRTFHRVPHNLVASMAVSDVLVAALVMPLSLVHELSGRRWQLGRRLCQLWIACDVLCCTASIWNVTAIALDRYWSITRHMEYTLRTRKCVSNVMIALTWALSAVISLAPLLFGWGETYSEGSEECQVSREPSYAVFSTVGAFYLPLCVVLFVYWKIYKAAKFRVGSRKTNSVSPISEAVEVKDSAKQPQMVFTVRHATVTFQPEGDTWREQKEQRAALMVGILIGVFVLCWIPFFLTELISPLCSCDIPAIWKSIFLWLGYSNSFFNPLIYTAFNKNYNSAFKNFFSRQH

| SMILES | inhibition |
| --- | --- |
| O=C(O)[C@@]12C[C@@H]1[C@@H](n1cnc3c(NC(C4CC4)C4CC4)nc(Cl)nc31)[C@H](O)[C@@H]2O | < 50% |
| CNC(=O)[C@H]1O[C@@H](n2cnc3c(N)ncnc32)[C@H](O)[C@@H]1O | < 50% |

Molecular target: 5-hydroxytryptamine receptor 4 (Homo sapiens) (UniProt Q13639)
Assay: Displacement of [3H]GR113808 from human 5-HT4 receptor at 10 uM incubated for 90 mins under dark condition by microbeta scintillation counting method relative to control
Conditions: not given

Sequence of 5-hydroxytryptamine receptor 4 (Homo sapiens) (Q13639 whole entry): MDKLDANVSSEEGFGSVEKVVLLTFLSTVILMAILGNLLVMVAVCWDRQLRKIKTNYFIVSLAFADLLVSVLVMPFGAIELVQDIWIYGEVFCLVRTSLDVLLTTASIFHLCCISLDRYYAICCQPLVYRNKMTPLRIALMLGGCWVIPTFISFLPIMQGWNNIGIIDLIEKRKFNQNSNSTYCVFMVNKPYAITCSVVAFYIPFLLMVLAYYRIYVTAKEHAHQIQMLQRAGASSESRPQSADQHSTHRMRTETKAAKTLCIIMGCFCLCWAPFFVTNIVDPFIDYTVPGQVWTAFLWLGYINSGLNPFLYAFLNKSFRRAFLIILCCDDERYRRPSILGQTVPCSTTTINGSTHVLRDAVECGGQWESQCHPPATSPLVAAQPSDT

| SMILES | inhibition |
| --- | --- |
| O=C(O)[C@@]12C[C@@H]1[C@@H](n1cnc3c(NC(C4CC4)C4CC4)nc(Cl)nc31)[C@H](O)[C@@H]2O | < 50% |
| CNC(=O)[C@H]1O[C@@H](n2cnc3c(N)ncnc32)[C@H](O)[C@@H]1O | < 50% |

Molecular target: 5-hydroxytryptamine receptor 2B (Homo sapiens, UniProt P41595)
Conditions: HEK293, at 10 µM

Sequence of 5-hydroxytryptamine receptor 2B (P41595 whole entry): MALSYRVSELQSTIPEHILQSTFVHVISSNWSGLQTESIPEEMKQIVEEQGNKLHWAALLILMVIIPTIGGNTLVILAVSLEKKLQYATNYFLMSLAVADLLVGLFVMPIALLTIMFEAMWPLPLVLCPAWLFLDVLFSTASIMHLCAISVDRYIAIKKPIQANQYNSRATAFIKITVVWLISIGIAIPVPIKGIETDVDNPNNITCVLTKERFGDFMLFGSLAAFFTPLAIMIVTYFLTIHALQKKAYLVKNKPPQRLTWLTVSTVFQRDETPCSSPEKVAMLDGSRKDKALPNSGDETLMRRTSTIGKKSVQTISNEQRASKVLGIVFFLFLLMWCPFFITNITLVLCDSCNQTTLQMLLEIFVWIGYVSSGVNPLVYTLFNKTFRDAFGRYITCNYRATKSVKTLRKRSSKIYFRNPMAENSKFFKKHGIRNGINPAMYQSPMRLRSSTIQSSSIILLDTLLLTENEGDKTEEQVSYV

| SMILES | inhibition |
| --- | --- |
| CNC(=O)[C@H]1O[C@@H](n2cnc3c(N)ncnc32)[C@H](O)[C@@H]1O | < 10% |

Molecular target: T1, 5-hydroxytryptamine receptor 2A (Homo sapiens, UniProt P28223)
Assay: Displacement of [3H]ketanserin from human 5-HT2A receptor expressed in HEK-T cell membranes incubated for 90 mins under dark condition by microbeta scintillation counting method
Conditions: not given

T1 sequence (P28223 whole entry): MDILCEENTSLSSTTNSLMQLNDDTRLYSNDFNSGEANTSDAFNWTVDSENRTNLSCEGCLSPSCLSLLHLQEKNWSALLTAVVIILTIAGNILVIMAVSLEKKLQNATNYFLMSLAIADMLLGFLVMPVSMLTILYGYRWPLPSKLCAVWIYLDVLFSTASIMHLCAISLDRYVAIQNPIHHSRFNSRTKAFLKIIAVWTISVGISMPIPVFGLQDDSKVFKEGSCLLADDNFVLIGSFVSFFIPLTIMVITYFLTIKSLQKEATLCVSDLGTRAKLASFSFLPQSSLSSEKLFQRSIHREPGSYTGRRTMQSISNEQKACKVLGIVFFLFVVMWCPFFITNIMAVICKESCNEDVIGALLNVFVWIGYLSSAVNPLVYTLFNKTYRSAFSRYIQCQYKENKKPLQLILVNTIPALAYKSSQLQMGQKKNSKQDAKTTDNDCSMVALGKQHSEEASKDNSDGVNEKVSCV

| SMILES | Ki |
| --- | --- |
| O=C(O)[C@@]12C[C@@H]1[C@@H](n1cnc3c(NC(C4CC4)C4CC4)nc(Cl)nc31)[C@H](O)[C@@H]2O | > 10 µM |
| CNC(=O)[C@H]1O[C@@H](n2cnc3c(N)ncnc32)[C@H](O)[C@@H]1O | > 10 µM |

Molecular target: 5-hydroxytryptamine receptor 1B (Homo sapiens) (UniProt P28222)
Assay: Displacement of [3H]5-CT from human 5-HT1BR expressed in HEK cell membranes at 10 uM incubated for 90 mins under dark condition by microbeta scintillation counting method relative to control
Conditions: HEK293

Sequence of 5-hydroxytryptamine receptor 1B (Homo sapiens) (P28222 whole entry): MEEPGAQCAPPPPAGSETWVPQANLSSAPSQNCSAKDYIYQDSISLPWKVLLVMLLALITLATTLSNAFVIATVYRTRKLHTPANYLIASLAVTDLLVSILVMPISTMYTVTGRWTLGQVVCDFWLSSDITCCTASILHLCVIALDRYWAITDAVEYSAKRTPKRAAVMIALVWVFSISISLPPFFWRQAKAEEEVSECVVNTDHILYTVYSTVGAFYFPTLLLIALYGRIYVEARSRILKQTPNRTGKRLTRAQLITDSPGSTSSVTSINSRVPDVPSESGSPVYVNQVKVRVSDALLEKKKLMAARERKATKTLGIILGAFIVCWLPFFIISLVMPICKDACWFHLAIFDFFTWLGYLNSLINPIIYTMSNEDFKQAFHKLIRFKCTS

| SMILES | inhibition |
| --- | --- |
| O=C(O)[C@@]12C[C@@H]1[C@@H](n1cnc3c(NC(C4CC4)C4CC4)nc(Cl)nc31)[C@H](O)[C@@H]2O | < 50% |
| CNC(=O)[C@H]1O[C@@H](n2cnc3c(N)ncnc32)[C@H](O)[C@@H]1O | < 50% |

Molecular target: T2, 5-hydroxytryptamine receptor 1A (Homo sapiens) (UniProt P08908)
T2 sequence (whole entry): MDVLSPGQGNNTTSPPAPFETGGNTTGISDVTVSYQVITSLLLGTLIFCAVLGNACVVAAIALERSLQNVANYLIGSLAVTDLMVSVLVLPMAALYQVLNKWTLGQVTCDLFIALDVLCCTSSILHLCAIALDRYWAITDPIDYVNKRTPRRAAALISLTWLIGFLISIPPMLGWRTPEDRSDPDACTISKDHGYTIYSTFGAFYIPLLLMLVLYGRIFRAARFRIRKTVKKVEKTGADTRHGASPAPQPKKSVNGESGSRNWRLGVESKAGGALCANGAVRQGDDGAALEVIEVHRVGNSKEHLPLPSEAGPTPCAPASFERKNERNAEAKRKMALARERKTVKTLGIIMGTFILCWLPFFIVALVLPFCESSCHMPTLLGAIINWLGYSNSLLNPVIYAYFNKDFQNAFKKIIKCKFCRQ
Assay: Displacement of [3H]WAY100635 from human 5-HT1AR expressed in CHO cell membranes at 10 uM incubated for 90 mins under dark condition by microbeta scintillation counting method relative to control
Conditions: not given

| SMILES | inhibition |
| --- | --- |
| O=C(O)[C@@]12C[C@@H]1[C@@H](n1cnc3c(NC(C4CC4)C4CC4)nc(Cl)nc31)[C@H](O)[C@@H]2O | < 50% |
| CNC(=O)[C@H]1O[C@@H](n2cnc3c(N)ncnc32)[C@H](O)[C@@H]1O | < 50% |

Molecular target: T3, 5-hydroxytryptamine receptor 3A (Homo sapiens) (UniProt P46098)
T3 sequence (whole entry): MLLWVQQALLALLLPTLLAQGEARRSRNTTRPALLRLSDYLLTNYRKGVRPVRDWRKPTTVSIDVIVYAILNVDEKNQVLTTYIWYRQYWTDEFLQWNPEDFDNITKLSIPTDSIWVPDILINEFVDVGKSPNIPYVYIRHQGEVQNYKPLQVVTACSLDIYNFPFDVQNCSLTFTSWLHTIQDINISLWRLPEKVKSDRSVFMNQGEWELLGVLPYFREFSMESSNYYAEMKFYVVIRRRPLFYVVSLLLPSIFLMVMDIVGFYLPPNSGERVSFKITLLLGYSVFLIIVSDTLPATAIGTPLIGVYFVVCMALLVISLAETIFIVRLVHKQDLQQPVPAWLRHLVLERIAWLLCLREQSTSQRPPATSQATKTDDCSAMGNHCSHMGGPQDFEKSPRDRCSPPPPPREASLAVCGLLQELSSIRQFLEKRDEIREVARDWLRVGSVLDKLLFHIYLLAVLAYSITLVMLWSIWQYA
Assay: Displacement of [3H]GR65630 from human 5-HT3 receptor expressed in HEK-T cell membranes at 10 uM incubated for 90 mins under dark condition by microbeta scintillation counting method relative to control
Conditions: not given

| SMILES | inhibition |
| --- | --- |
| O=C(O)[C@@]12C[C@@H]1[C@@H](n1cnc3c(NC(C4CC4)C4CC4)nc(Cl)nc31)[C@H](O)[C@@H]2O | < 50% |
| CNC(=O)[C@H]1O[C@@H](n2cnc3c(N)ncnc32)[C@H](O)[C@@H]1O | < 50% |

Molecular target: T1, 5-hydroxytryptamine receptor 2A
Assay: Displacement of [3H]ketanserin from human 5-HT2A receptor expressed in HEK-T cell membranes at 10 uM incubated for 90 mins under dark condition by microbeta scintillation counting method relative to control
Conditions: not given

| SMILES | inhibition |
| --- | --- |
| O=C(O)[C@@]12C[C@@H]1[C@@H](n1cnc3c(NC(C4CC4)C4CC4)nc(Cl)nc31)[C@H](O)[C@@H]2O | < 10% |
| CNC(=O)[C@H]1O[C@@H](n2cnc3c(N)ncnc32)[C@H](O)[C@@H]1O | < 10% |

Molecular target: 5-hydroxytryptamine receptor 7 (Homo sapiens) (UniProt P34969)
Assay: Displacement of [3H]LSD from human 5-HT7A receptor expressed in HEK cell membranes at 10 uM incubated for 90 mins under dark condition by microbeta scintillation counting method relative to control
Conditions: HEK293

Sequence of 5-hydroxytryptamine receptor 7 (Homo sapiens) (P34969 whole entry): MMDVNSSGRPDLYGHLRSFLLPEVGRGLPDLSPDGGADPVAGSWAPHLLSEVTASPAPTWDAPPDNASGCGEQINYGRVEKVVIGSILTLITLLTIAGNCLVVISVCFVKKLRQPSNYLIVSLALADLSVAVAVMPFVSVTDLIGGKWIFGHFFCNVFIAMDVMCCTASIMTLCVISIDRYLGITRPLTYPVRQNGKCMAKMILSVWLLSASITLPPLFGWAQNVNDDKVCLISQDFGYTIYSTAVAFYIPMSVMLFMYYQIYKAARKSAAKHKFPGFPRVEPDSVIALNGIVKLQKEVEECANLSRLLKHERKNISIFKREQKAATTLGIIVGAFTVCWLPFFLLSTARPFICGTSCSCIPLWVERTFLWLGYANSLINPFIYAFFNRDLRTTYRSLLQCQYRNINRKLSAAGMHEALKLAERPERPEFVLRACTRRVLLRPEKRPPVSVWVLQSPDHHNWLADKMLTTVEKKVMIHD

| SMILES | inhibition |
| --- | --- |
| O=C(O)[C@@]12C[C@@H]1[C@@H](n1cnc3c(NC(C4CC4)C4CC4)nc(Cl)nc31)[C@H](O)[C@@H]2O | < 50% |
| CNC(=O)[C@H]1O[C@@H](n2cnc3c(N)ncnc32)[C@H](O)[C@@H]1O | < 50% |

Molecular target: T4, 5-hydroxytryptamine receptor 2C (Homo sapiens, UniProt P28335)
T4 sequence (P28335 whole entry): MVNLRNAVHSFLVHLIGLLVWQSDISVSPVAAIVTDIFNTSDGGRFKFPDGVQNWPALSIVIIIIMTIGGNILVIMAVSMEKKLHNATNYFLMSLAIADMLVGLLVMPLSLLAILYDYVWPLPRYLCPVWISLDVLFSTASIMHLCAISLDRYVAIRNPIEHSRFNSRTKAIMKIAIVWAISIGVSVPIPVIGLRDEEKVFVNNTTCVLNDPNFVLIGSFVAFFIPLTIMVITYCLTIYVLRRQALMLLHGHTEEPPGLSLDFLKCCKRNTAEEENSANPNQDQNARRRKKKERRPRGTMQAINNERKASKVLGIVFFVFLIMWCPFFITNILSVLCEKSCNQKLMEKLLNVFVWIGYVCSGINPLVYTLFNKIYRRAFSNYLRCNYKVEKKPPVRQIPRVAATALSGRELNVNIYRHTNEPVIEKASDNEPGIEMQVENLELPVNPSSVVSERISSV
Assay: Displacement of [3H]mesulergine from human 5-HT2CR expressed in Flp-In HEK cell membranes incubated for 90 mins under dark condition by microbeta scintillation counting method
Set-up: species or system HEK293
Conditions: not given

| SMILES | Ki |
| --- | --- |
| O=C(O)[C@@]12C[C@@H]1[C@@H](n1cnc3c(NC(C4CC4)C4CC4)nc(Cl)nc31)[C@H](O)[C@@H]2O | 2.58 µM |

Molecular target: T5, Adenosine receptor A3 (Homo sapiens, UniProt P0DMS8)
T5 sequence (P0DMS8 whole entry): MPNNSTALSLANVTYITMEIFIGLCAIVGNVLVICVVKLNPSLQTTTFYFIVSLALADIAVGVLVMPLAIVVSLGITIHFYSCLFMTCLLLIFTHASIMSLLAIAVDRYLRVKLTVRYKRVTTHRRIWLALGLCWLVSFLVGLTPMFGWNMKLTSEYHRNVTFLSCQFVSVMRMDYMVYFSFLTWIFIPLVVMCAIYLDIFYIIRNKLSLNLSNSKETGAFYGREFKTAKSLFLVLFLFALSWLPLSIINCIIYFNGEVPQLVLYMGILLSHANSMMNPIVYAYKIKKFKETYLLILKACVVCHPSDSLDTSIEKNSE
Assay: Displacement of [125l]N 6-(4-amino-3-iodobenzyl)adenosine-5'-N-methyluronamide from recombinant human A3AR expressed in CHO cell membranes after 60 mins by gamma counting method
Conditions: not given

| SMILES | Ki |
| --- | --- |
| O=C(O)[C@@]12C[C@@H]1[C@@H](n1cnc3c(NC(C4CC4)C4CC4)nc(Cl)nc31)[C@H](O)[C@@H]2O | 5.98 µM |

Molecular target: 5-hydroxytryptamine receptor 6 (Homo sapiens) (UniProt P50406)
Assay: Displacement of [3H]LSD from human 5-HT6 receptor expressed in HEK cell membranes at 10 uM incubated for 90 mins under dark condition by microbeta scintillation counting method relative to control
Conditions: HEK293

Sequence of 5-hydroxytryptamine receptor 6 (Homo sapiens) (P50406 whole entry): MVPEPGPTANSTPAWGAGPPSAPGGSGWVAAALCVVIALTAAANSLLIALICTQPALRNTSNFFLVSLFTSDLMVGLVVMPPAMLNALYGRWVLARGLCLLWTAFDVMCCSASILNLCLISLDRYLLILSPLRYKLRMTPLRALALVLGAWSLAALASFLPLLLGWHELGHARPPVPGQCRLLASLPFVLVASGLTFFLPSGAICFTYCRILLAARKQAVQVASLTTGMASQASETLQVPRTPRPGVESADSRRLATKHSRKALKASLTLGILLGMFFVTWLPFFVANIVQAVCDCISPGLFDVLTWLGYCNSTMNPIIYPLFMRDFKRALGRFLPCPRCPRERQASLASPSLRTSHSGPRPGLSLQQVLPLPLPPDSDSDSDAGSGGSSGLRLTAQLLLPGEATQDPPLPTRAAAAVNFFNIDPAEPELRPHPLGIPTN

| SMILES | inhibition |
| --- | --- |
| O=C(O)[C@@]12C[C@@H]1[C@@H](n1cnc3c(NC(C4CC4)C4CC4)nc(Cl)nc31)[C@H](O)[C@@H]2O | < 50% |
| CNC(=O)[C@H]1O[C@@H](n2cnc3c(N)ncnc32)[C@H](O)[C@@H]1O | < 50% |

Molecular target: 5-hydroxytryptamine receptor 1D (Homo sapiens) (UniProt P28221)
Assay: Displacement of [3H]5-CT from human 5-HT1D receptor expressed in HEK-T cell membranes at 10 uM incubated for 90 mins under dark condition by microbeta scintillation counting method relative to control
Conditions: not given

Sequence of 5-hydroxytryptamine receptor 1D (Homo sapiens) (P28221 whole entry): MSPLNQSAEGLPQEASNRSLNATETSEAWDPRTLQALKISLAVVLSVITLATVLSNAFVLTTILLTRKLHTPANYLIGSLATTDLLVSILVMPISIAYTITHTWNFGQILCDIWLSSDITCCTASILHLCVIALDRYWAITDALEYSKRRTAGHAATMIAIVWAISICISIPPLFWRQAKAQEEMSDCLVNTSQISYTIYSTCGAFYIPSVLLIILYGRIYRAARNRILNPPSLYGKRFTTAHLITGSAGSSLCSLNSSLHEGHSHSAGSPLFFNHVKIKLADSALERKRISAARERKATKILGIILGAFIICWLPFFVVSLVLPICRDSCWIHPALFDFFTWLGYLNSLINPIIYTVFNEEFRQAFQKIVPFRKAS

| SMILES | inhibition |
| --- | --- |
| O=C(O)[C@@]12C[C@@H]1[C@@H](n1cnc3c(NC(C4CC4)C4CC4)nc(Cl)nc31)[C@H](O)[C@@H]2O | < 50% |
| CNC(=O)[C@H]1O[C@@H](n2cnc3c(N)ncnc32)[C@H](O)[C@@H]1O | < 50% |

Molecular target: Adenosine receptor A2a (Homo sapiens, UniProt P29274)
Assay: Displacement of [3 H]2-[p-(2-carboxyethyl)phenyl-ethylamino]-5'-N-ethylcarboxamidoadenosine from recombinant human adenosine receptor A2A expressed in HEK293 cell membranes at 10 uM after 60 mins by liquid scintillation counting method relative to control
Conditions: not given

Sequence of Adenosine receptor A2a (P29274 whole entry): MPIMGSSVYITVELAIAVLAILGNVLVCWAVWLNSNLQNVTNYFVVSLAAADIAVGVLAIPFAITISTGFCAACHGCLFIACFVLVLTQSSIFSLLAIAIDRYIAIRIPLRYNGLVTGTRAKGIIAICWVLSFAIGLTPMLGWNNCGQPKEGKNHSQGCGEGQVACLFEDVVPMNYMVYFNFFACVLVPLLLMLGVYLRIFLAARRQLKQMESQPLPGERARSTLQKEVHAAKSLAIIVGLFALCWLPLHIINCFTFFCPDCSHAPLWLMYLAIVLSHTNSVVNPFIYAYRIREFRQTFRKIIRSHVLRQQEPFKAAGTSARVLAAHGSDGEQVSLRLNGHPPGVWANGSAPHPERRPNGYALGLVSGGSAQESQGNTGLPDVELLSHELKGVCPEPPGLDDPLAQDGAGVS

| SMILES | inhibition |
| --- | --- |
| O=C(O)[C@@]12C[C@@H]1[C@@H](n1cnc3c(NC(C4CC4)C4CC4)nc(Cl)nc31)[C@H](O)[C@@H]2O | < 10% |

Molecular target: T6, 5-hydroxytryptamine receptor 2C (Homo sapiens) (UniProt P28335)
T6 sequence (whole entry): T4 sequence (P28335 whole entry)
Assay: Displacement of [3H]mesulergine from human 5-HT2CR expressed in Flp-In HEK cell membranes at 10 uM incubated for 90 mins under dark condition by microbeta scintillation counting method relative to control
Conditions: HEK293

| SMILES | inhibition |
| --- | --- |
| O=C(O)[C@@]12C[C@@H]1[C@@H](n1cnc3c(NC(C4CC4)C4CC4)nc(Cl)nc31)[C@H](O)[C@@H]2O | > 50% |
| CNC(=O)[C@H]1O[C@@H](n2cnc3c(N)ncnc32)[C@H](O)[C@@H]1O | < 10% |

Molecular target: 5-hydroxytryptamine receptor 1E (Homo sapiens) (UniProt P28566)
Assay: Displacement of [3H]5-HT from human 5-HT1E receptor expressed in HEK cell membranes at 10 uM incubated for 90 mins under dark condition by microbeta scintillation counting method relative to control
Conditions: HEK293

Sequence of 5-hydroxytryptamine receptor 1E (Homo sapiens) (P28566 whole entry): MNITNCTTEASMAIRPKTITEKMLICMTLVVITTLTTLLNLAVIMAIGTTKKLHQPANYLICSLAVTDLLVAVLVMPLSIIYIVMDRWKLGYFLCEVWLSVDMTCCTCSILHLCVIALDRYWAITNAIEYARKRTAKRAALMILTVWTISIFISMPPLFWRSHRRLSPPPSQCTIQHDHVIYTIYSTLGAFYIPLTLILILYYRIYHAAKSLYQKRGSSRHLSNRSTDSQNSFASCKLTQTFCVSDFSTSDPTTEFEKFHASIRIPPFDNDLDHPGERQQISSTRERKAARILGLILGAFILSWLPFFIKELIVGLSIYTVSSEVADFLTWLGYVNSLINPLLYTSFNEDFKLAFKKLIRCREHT

| SMILES | inhibition |
| --- | --- |
| O=C(O)[C@@]12C[C@@H]1[C@@H](n1cnc3c(NC(C4CC4)C4CC4)nc(Cl)nc31)[C@H](O)[C@@H]2O | < 50% |
| CNC(=O)[C@H]1O[C@@H](n2cnc3c(N)ncnc32)[C@H](O)[C@@H]1O | < 50% |
